Earlier results, collected in patent US8648203B2 (priority 2005, dated 2014).

Test system: benzimidazole and/or dicarboximide resistant strains of B. cinerea

In the case of `O=[N+]([O-])c1cc(C(F)(F)F)c(Cl)c([N+](=O)[O-])c1Nc1ncc(C(F)(F)F)cc1Cl` [fluazinam, 3-chloro-N-(3-chloro-5-trifluoromethyl-2-pyridyl)-α,α,α-trifluoro-2,6-dinitro-p-toluidine], the “activity against resistant strains of B. cinerea” value is given as “good activity”.
